Results published in US10132810B2, “Method for assessing and predicting efficacy of breast cancer treatment with a long-acting topoisomerase I inhibitor” (priority 2012, dated 2018).
Like-named read-outs stand apart in the source and are kept apart here.

Assays:
[1] = tested on: patients with previously treated metastatic breast cancer; assay: Efficacy of two dosing schedules in patients with previously treated metastatic breast cancer (RECIST response, PFS, OS); type: in vivo, human
Procedure: Seventy patients were enrolled in the trial (n=35 per arm). […] Patients received treatment until disease progression or unacceptable toxicity. The drug dosage was dose-reduced by 25 mg/m^2 for grade 3-4 hematologic toxicity, grade 3-4 diarrhea, and other grade 2-4 non-hematologic toxicities (other than alopecia, anorexia, asthenia, and untreated nausea/vomiting). […] Medical history was taken at screening and on day 1 of each cycle. […] Coagulation parameters were analyzed at screening and on day 1 of each cycle. […] Patients were contacted approximately every 3 months after the end-of-treatment visit to assess progression (in the absence of progression on study), survival, receipt of subsequent anti-cancer therapy, and resolution of toxicity. […] Exploratory endpoints included change from baseline in CA27.29, UGT1A1 and ABCC2 polymorphism for correlation with select toxicities. Three populations for analysis were defined: 1) intent-to-treat (ITT), 2) efficacy evaluable, and 3) safety. The ITT population was the primary population for all efficacy analyses and included all randomized patients. […] The safety population consisted of all patients who received at least one dose or partial dose of chemotherapeutic agent. Summary statistics were used for continuous variables, frequency counts and percentages were used for categorical variables. Ninety-five percent confidence interval were calculated for ORR using the Exact method. Time-to-event variables were analyzed using the Kaplan-Meier method.

serum CA27.29 = tested on: serum CA27.29
Procedure: Medical history was taken at screening and on day 1 of each cycle. Physical exam was performed and serum CA27.29, complete blood count with differential, and serum chemistry were analyzed at screening, on day 1 of each cycle, and at end of treatment. Coagulation parameters were analyzed at screening and on day 1 of each cycle. […] Patients were contacted approximately every 3 months after the end-of-treatment visit to assess progression (in the absence of progression on study), survival, receipt of subsequent anti-cancer therapy, and resolution of toxicity.
Secondary endpoints were PFS, overall survival (OS), 6-month and 1-year survival, and safety. Exploratory endpoints included change from baseline in CA27.29, UGT1A1 and ABCC2 polymorphism for correlation with select toxicities.
The analysis dataset utilized consisted of 45 patients having at least two CA27.29 measurements (pre- and post-first dose).
Levels of CA27.29 were also evaluated for correlation with tumor size over the course of treatment.

Pentaerythritolyl-4-Arm-(PEG-1-Methylene-2 Oxo-Vinylamino Acetate linked-Irinotecan)-20K [4-arm-PEG-gly-irino-20K]
objective response rate (ORR) ([1]; 145 mg/m^2 iv, administered every 14 days or every 21 days): 28.6%
Overall Survival (OS) ([1]; Total (both schedules)): 10.3 months
Progression Free Survival (PFS) ([1]; Total (both schedules)): 4.6 months
Overall Response Rate (ORR) ([1]; Total (both schedules), N = 66): 29% (N = 66)
Overall Survival (OS) ([1]; q21d schedule): 13.1 months
Progression Free Survival (PFS) ([1]; q21d schedule): 5.3 months
decrease in serum CA27.29 levels over time (serum CA27.29; 145 mg/m^2, both q14d and q21d regimens, FIGS. 1A and 1B): at least twenty five
median change in CA27.29 (serum CA27.29; RECIST PD, FIG. 5): increased
median of the maximum CA27.29 decline (serum CA27.29; RECIST PR and CR, FIG. 5): > 50%
median decline in CA27.29 (serum CA27.29; RECIST SD < 6 months, FIG. 5): negligible
median of the maximum decline in CA27.29 (serum CA27.29; RECIST SD >= 6 months, FIG. 5): 30%
Overall best CA27.29 response (50% or better decline in at least one observation from baseline) (serum CA27.29; Total, 16/45 patients): 36% (16/45)
median PFS (serum CA27.29; patients with <25% reduction (n=4) or elevations (n=13) in CA27.29 by week 6): 6 months
median PFS (serum CA27.29; patients with >=25% reduction in CA27.29 by week 6 (n=12)): 12 months
patients showing CA27.29 elevation from baseline (serum CA27.29; patients with RECIST PD (8/10)): Eighty
patients manifesting declines in CA27.29 (serum CA27.29; patients with RECIST SD >= 6 months (n=5)): All patients
patients showing a decline in CA27.29 (serum CA27.29; patients with SD < 6 months (6/11)): 55%
